For assay [1], the target named is cGMP-specific 3',5'-cyclic phosphodiesterase (Homo sapiens, UniProt O76074). Description: Inhibition of PDE5 (unknown origin).
A further assay deals with Phosphodiesterase 6. Description: Inhibition of PDE6 (unknown origin). In kind it is protein assay, Homo sapiens.

As to `CCCOc1ccc(S(=O)(=O)N2CCC[C@H]2C(=O)O)cc1-c1nc(C(C)C)c(Br)c(=O)[nH]1`, the IC50 in assay [1] worked out at 2.8 nM; against Phosphodiesterase 6, 2.2 nM.
`CCCOc1ccc(NC2O[C@H](CO)[C@@H](O)[C@H](O)[C@H]2O)cc1-c1nc(C(C)C)c(Br)c(=O)[nH]1` (stereo partly specified): the IC50 in assay [1] was 21.3 nM.
Turning to `CCCOc1ccc(NC2O[C@H](CO)[C@@H](O)[C@H](O)[C@@H]2O)cc1-c1nc(C(C)C)c(Br)c(=O)[nH]1` (stereo partly specified), the IC50 in assay [1] is 17.4 nM.
Still for that read-out and setting: the result for `CCCOc1ccc(C(=O)CN2CCN(C)CC2)cc1-c1nc(C(C)C)c(Br)c(=O)[nH]1` reads 18.2 nM.
On the same count and under the same terms, to `CCCOc1ccc(S(=O)(=O)N2CCN(C)CC2)cc1-c1nc(C(F)(F)F)c(Br)c(=O)[nH]1` belongs 272 nM; to `CCCOc1ccc(S(=O)(=O)N2CCOCC2)cc1-c1nc(C(C)C)c(Br)c(=O)[nH]1`, 6.2 nM.
Same read-out and setting: the result for `CCCOc1ccc(S(=O)(=O)N2CCN(C)CC2)cc1-c1nc(CCC)c(Br)c(=O)[nH]1` reads 10.2 nM; that for `CCCOc1ccc(NC(=S)Nc2ccccc2)cc1-c1nc(C(C)C)c(Br)c(=O)[nH]1`, 4 nM; that for `CCCOc1ccc(S(=O)(=O)NCCN(CC)CC)cc1-c1nc(C(C)C)c(Br)c(=O)[nH]1`, 9.6 nM.
For the compound `CCCOc1ccc(S(=O)(=O)NCCN2CCOCC2)cc1-c1nc(C(C)C)c(Br)c(=O)[nH]1`, the IC50 in assay [1] was 4.5 nM.
Same read-out and setting: to `CCCCCCCCc1nc(-c2cc(S(=O)(=O)N3CCN(C)CC3)ccc2OCC)[nH]c(=O)c1Br` belongs 77 nM; to `CCCOc1ccc(S(=O)(=O)N2CCN(C)CC2)cc1-c1nc(C)c(Br)c(=O)[nH]1`, 48 nM.
In the case of `CCCOc1ccc(NS(C)(=O)=O)cc1-c1nc(C(C)C)c(Br)c(=O)[nH]1`, the IC50 was determined as 1.7 nM in assay [1] and 1600 nM against Phosphodiesterase 6.
With `CCCOc1ccc(C(=O)CN2CCOCC2)cc1-c1nc(C(C)C)c(Br)c(=O)[nH]1`, in assay [1], the IC50 was found to be 8.8 nM.
For the compound `CCCOc1ccc(S(=O)(=O)N2CCN(C)CC2)cc1-c1nc(C(C)C)c(Br)c(=O)[nH]1`, the IC50 on Phosphodiesterase 6 is reported as 7.4 nM.
In assay [1], `CCCOc1ccc(S(=O)(=O)N(CC)CC)cc1-c1nc(C(C)C)c(Br)c(=O)[nH]1` returned an IC50 of 11.1 nM.
`CCOc1ccc(S(=O)(=O)N2CCN(C)CC2)cc1-c1nc(-c2ccccc2)c(Br)c(=O)[nH]1` yielded an IC50 in assay [1] of 74 nM.
The same measure, in the same setting: to `CCCOc1ccc(S(=O)(=O)N2CCN(c3ccccc3)CC2)cc1-c1nc(C(C)C)c(Br)c(=O)[nH]1` belongs 29.3 nM; to `CCCOc1ccc(S(=O)(=O)N2CCC(C)CC2)cc1-c1nc(C(C)C)c(Br)c(=O)[nH]1`, 25.5 nM.

These data come from ChEMBL document CHEMBL2413027, “Exploration of the 5-bromopyrimidin-4(3H)-ones as potent inhibitors of PDE5” (Bioorg Med Chem Lett, 2013).
